Laboratory results as given in US10071974B2, “Morpholine and 1,4-oxazepane amides as somatostatin receptor subtype 4 (SSTR4) agonists” (Boehringer Ingelheim International GmbH, priority 2014, dated 2018).

Biological target: human Somatostatin 4 Receptor (SSTR4) (Homo sapiens (Human), UniProt P31391)
Assay: cAMP assay with human somatostatin 4 receptor (hSSTR4 expressing H4 cells)
Assay type: cell-based
Details: read-out: SSTR4 agonism EC50

human Somatostatin 4 Receptor (SSTR4), sequence (P31391 whole entry): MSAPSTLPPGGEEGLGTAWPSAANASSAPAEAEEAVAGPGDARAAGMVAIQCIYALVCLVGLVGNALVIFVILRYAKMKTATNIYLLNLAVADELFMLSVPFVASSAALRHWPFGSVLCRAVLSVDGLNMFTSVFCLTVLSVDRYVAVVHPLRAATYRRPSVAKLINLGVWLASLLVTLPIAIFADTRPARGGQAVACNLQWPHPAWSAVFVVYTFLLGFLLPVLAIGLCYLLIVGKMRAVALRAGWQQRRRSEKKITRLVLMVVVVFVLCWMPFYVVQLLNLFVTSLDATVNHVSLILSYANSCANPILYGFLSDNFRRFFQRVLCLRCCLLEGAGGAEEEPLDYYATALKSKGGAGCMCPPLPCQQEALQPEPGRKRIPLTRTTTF

Compound	EC50 [nM]
C[C@H](NC(=O)C1CNCCOC1)c1cccc2ccccc12 (stereo partly shown) [Example 3]	18
Cc1cccn2c(C(C)(C)NC(=O)[C@@H]3CNCCO3)nnc12 [Example 105]	596
CC(C)(COc1nccc2ccccc12)NC(=O)C1CNCCOC1 (single isomer, unassigned) [Example 18]	209
CC(C)(NC(=O)[C@@H]1CNCCO1)C1CCCCC1 [Example 7]	2420
COc1cccn2c(C(C)(C)NC(=O)C3CNCCOC3)ncc12 (racemic) [Example 123]	32.4
CC(C)(NC(=O)C1CNCCOC1)c1n[nH]c2c(Cl)cccc12 (racemic) [Example 92]	2.5
COc1cccn2c(C(C)(C)NC(=O)C3CNCCOC3)ncc12 (single isomer, unassigned) [Example 125]	16.4
CC(C)(NC(=O)C1CNCCOC1)c1cccc2ccccc12 (stereo not shown) [Example 1]	4.7
Cc1cccn2c(C(C)(C)NC(=O)C3CNCCOC3)nc(C3CC3)c12 (racemic) [Example 138]	59.7
CC(C)(NC(=O)C1CNCCOC1)c1noc2c(F)cccc12 (single isomer, unassigned) [Example 64]	1860
Cc1cccn2c(C(C)(CC(C)C)NC(=O)[C@@H]3CNCCO3)ncc12 (single isomer, unassigned) [Example 112]	5500
Cc1nc(C(C)(C)NC(=O)C2CNCCOC2)n2cccc(F)c12 (single isomer, unassigned) [Example 121]	11.1
Cc1cccc2c(C(C)(C)NC(=O)C3CNCCOC3)noc12 (racemic) [Example 54]	8.2
CC(C)(NC(=O)[C@@H]1CNCCO1)c1nc2ccc(Cl)cc2[nH]1 [Example 14]	796
Cc1cccn2c(C(C)(C)NC(=O)C3CNCCOC3)nc(C)c12 (single isomer, unassigned) [Example 129]	5.3
Cc1cccn2c(C(C)(C)NC(=O)C3CNCCOC3)nc(C)c12 (single isomer, unassigned) [Example 130]	466
Cc1cccn2c(C3(NC(=O)[C@@H]4CNCCO4)CCC3)ncc12 [Example 102]	31
Cc1cccn2c(C(C)(NC(=O)[C@@H]3CNCCO3)C3CC3)ncc12 (single isomer, unassigned) [Example 110]	1000
Cc1cccc2c(C(C)(C)NC(=O)C3CNCCOC3)n[nH]c12 (racemic) [Example 58]	4.1
Cc1cccc2c(C(C)(C)NC(=O)C3CNCCOC3)nn(C)c12 (single isomer, unassigned) [Example 86]	1000
CC(C)(NC(=O)[C@@H]1CNCCO1)c1nc(C2CC2)c2c(F)cccn12 [Example 103]	60.7
Cc1cccc2c(C(C)(C)NC(=O)C3CNCCOC3)nn(C)c12 (racemic) [Example 84]	4.5
Cc1cccn2c(C3(NC(=O)[C@@H]4CNCCO4)CCOC3)ncc12 (single isomer, unassigned) [Example 114]	1000
Cc1nc(C(C)(C)NC(=O)C2CNCCOC2)n2cccc(F)c12 (single isomer, unassigned) [Example 122]	1000
Cc1cccn2c(C(C)(C)NC(=O)[C@@H]3CNCCO3)cnc12 [Example 108]	58.1
COc1cccn2c(C(C)(C)NC(=O)C3CNCCOC3)ncc12 (single isomer, unassigned) [Example 124]	1000

Compound	EC50 [nM]
Cc1cccn2c(C(C)(C)NC(=O)C3CNCCOC3)nc(C3CC3)c12 (single isomer, unassigned) [Example 139]	22.2
Cc1cccn2c(C(C)(NC(=O)[C@@H]3CNCCO3)C3CC3)ncc12 (single isomer, unassigned) [Example 111]	290
Cc1ccccc1OCC(C)(C)NC(=O)[C@@H]1CNCCO1 [Example 15]	244
CC(C)(NC(=O)C1CNCCOC1)c1n[nH]c2c(F)cccc12 (racemic) [Example 88]	11.1
CC(C)(NC(=O)C1CNCCOC1)c1noc2c(F)cccc12 (single isomer, unassigned) [Example 63]	42
Cc1cccn2c(C(C)(C)NC(=O)[C@@H]3CNCCO3)nc(C3CC3)c12 [Example 104]	73.5
Cc1cccn2c(C(C)(C)NC(=O)C3CNCCOC3)ccc12 (racemic) [Example 135]	8.5
CC(C)(NC(=O)C1CCNCCO1)c1noc2c(F)cccc12 (racemic) [Example 68]	628
CC(C)(NC(=O)C1CNCCOC1)c1ncc2c(Cl)cccn12 (single isomer, unassigned) [Example 119]	73.9
Cc1cccn2c(C(C)(C)NC(=O)C3CNCCOC3)nc(C3CC3)c12 (single isomer, unassigned) [Example 140]	1000
CC(C)(NC(=O)C1CNCCOC1)c1n[nH]c2c(F)cccc12 (single isomer, unassigned) [Example 90]	670
CC(C)(COc1nccc2ccccc12)NC(=O)C1CNCCOC1 (single isomer, unassigned) [Example 17]	30000
Cc1cccn2c(C3(NC(=O)C4CNCCOC4)CCC3)ncc12 (single isomer, unassigned) [Example 132]	10000
Cc1cccc2c(C(C)(C)NC(=O)C3CNCCOC3)noc12 (single isomer, unassigned) [Example 56]	737
Cc1cccn2c(C(C)(C)NC(=O)C3CNCCOC3)ccc12 (single isomer, unassigned) [Example 137]	1430
Cn1nc(C(C)(C)NC(=O)C2CNCCOC2)c2ccccc21 (single isomer, unassigned) [Example 22]	192
Cn1nc(C(C)(C)NC(=O)C2CNCCOC2)c2cccc(Cl)c21 (racemic) [Example 80]	4.8
CC(C)(COc1cnccc1C(F)(F)F)NC(=O)[C@@H]1CNCCO1 [Example 9]	190
CC(C)(NC(=O)C1CNCCOC1)c1noc2c(F)cccc12 (racemic) [Example 62]	65.7
Cc1cccn2c(C(C)(C)NC(=O)C3CCNCCO3)ncc12 (single isomer, unassigned) [Example 142]	90.5
Cc1cccn2c(C(C)(C)NC(=O)C3CCNCCO3)ncc12 (single isomer, unassigned) [Example 143]	77.6
Cc1cc(F)cn2c(C(C)(C)NC(=O)[C@@H]3CNCCO3)ncc12 [Example 100]	103
CC(C)(NC(=O)C1CNCCOC1)c1nc2ccc(Cl)cc2[nH]1 (stereo not shown) [Example 13]	356
Cc1cccc2c(C(C)(C)NC(=O)C3CNCCOC3)cnn12 (racemic) [Example 33]	7.7
CC(C)(NC(=O)C1CNCCOC1)c1n[nH]c2c(Cl)cccc12 (single isomer, unassigned) [Example 94]	31

Results, then the compound that gave them:

EC50 [nM]	Compound
23000	CC(C)(NC(=O)C1CNCCCO1)c1noc2c(F)cccc12 (single isomer, unassigned) [Example 67]
21.6	Cn1nc(C(C)(C)NC(=O)[C@@H]2CNCCO2)c2c(F)cccc21 [Example 29]
0.8	Cc1ncc(C(C)(C)NC(=O)C2CNCCOC2)c2ccccc12 (racemic) [Example 40]
26.3	CC(C)(NC(=O)[C@@H]1CNCCO1)c1ccnc2ccccc12 [Example 11]
998	CC(C)(NC(=O)C1CNCCCO1)c1noc2c(F)cccc12 (racemic) [Example 65]
52.7	Cn1nc(C(C)(C)NC(=O)[C@@H]2CNCCO2)c2cccc(C(F)(F)F)c21 [Example 31]
415	Cc1ncc(C(C)(C)NC(=O)C2CNCCOC2)c2ccccc12 (single isomer, unassigned) [Example 42]
48.9	Cc1cc2ccccc2c(C(C)(C)NC(=O)C2CCNCCO2)n1 (single isomer, unassigned) [Example 52]
258	CC(C)(NC(=O)[C@H]1CNCCO1)c1cccc2ncccc12 [Example 8]
1000	Cc1cccn2c(C(C)(C)NC(=O)C3CNCCCO3)ncc12 (single isomer, unassigned) [Example 146]
230	Cc1nc2ccccn2c1C(C)(C)NC(=O)[C@@H]1CNCCO1 [Example 106]
93	Cc1cccn2c(C(C)(C)NC(=O)C3CNCCCO3)nc(C)c12 (single isomer, unassigned) [Example 148]
25.9	Cc1cc2ccccc2c(C(C)(C)NC(=O)C2CNCCCO2)n1 (racemic) [Example 47]
1000	Cn1nc(C(C)(C)NC(=O)C2CNCCCO2)c2ccccc21 (single isomer, unassigned) [Example 25]
988	Cc1cc2ccccc2c(C(C)(C)NC(=O)C2CNCCCO2)n1 (single isomer, unassigned) [Example 49]
625	CC(C)(NC(=O)C1CNCCCO1)c1noc2c(F)cccc12 (single isomer, unassigned) [Example 66]
795	Cc1cc2ccccc2c(C(C)(C)NC(=O)C2CNCCOC2)n1 (single isomer, unassigned) [Example 45]
55.3	Cc1nc(C(C)(C)NC(=O)C2CNCCOC2)c2cccc(C)c2n1 (racemic) [Example 133]
71.8	Cc1cccn2c(C(C)(C)NC(=O)C3CNCCCO3)ncc12 (racemic) [Example 144]
42.9	Cc1cc2ccccc2c(C(C)(C)NC(=O)C2CCNCCO2)n1 (single isomer, unassigned) [Example 51]
25.4	Cc1nnc(C(C)(C)NC(=O)[C@@H]2CNCCO2)c2ccccc12 [Example 36]
13.4	CC(C)(NC(=O)[C@@H]1CNCCO1)c1n[nH]c2c(F)cccc12 [Example 87]
10.9	Cc1cccc2c(C(C)(C)NC(=O)[C@@H]3CNCCO3)cnn12 [Example 32]
98.1	Cc1nc(C(C)(C)NC(=O)C2CNCCOC2)c2cccc(C)c2n1 (single isomer, unassigned) [Example 134]
147	CC(C)(NC(=O)[C@@H]1CNCCO1)c1noc2c(F)cccc12 [Example 61]
90.1	Cc1cc2cccnc2c(C(C)(C)NC(=O)C2CNCCOC2)n1 (stereo not shown) [Example 2]
180	Cc1ncc(C(C)(C)NC(=O)[C@H]2CNCCO2)c2ccccc12 [Example 39]
35.1	CC(C)(NC(=O)[C@@H]1CNCCO1)c1noc2c(Cl)cccc12 [Example 71]
